Data from patent publication US20120029054A1, “RNA Interference Mediated Inhibition of GATA Binding Protein 3 (GATA3) Gene Expression Using Short Intefering Nucleic Acid (siNA)” (Merck Sharp & Dohme Corp., priority 2009, published 2012).
[invAb] = inverted abasic unit; m = 2'-O-methyl; r = 2'-OH (RNA); f = 2'-fluoro

Columns and labels:
[1] = tested on: GATA3 mRNA; assay: GATA3 mRNA knock-down (Taqman qRT-PCR) after RNAiMax transfection of mouse RAG cells; type: cell-based; conditions: 10 nM siNA, 24 hrs, average of 2 experiments
Description: RAG (murine; ATCC cat# CCL-142): Cells were cultured at 37° C. in the presence of 5% CO2 and grown in Eagle's Minimum Essential medium with supplemented with 10% of fetal bovine serum, 100 μg/mL of streptomycin, and 100 U/mL penicillin.
(§1) Cells were plated in all wells of a tissue-culture treated, 96-well plate at a final count of 5000 cells/well in 100 μL of the appropriate culture media. The cells were cultured for 24 hours after plating at 37° C. in the presence of 5% CO2.
(§2) After 24 hours, complexes containing siNA and RNAiMax were created as follows: A solution of RNAiMax diluted 33-fold in OPTI-MEM was prepared. In parallel, solutions of the siNAs for testing were prepared to a final concentration of 120 nM in OPTI-MEM. After incubation of RNAiMax/OPTI-MEM solution at room temperature for 5 min, an equal volume of the siNA solution and the RNAiMax solution were added together for each of the siNAs.
(§3) This solution was incubated at room temperature for 20 minutes. After incubation, 20 uL of the solution was added to each of the relevant wells. The final concentration of siNA in each well was 10 nM and the final volume of RNAiMax in each well was 0.3 ul.
(§4) The time of incubation with the RNAiMax-siNA complexes was 24 hours and there was no change in media between transfection and harvesting, unless otherwise indicated.
(§5) RNA was extracted from a 96-well plate using the TaqMan® Gene Expression Cells-to-CT™ Kit (Cat#4399002) with a modified protocol. Briefly, a 60 uL (1 plate) or 110 uL (2 plates) of the Lysis Solution with DNase I was dispensed into each well of the Lysis Buffer Plate (twin.tec full skirt plate). The lysis buffer and stop plates were stored at 4° C. until the cells were washed.
(§6) The plate was spun at 1100 rpm for 5 minutes. The culture medium was aspirated and discarded from the wells of the culture plate. The lysis was performed automatically using a BioMek FX instrument and method. After the Biomek method was completed, the lysis plate was incubated for 2 min. at room temperature. The lysis plate can be stored for 2 hours at 4° C., or at −20° C. or −80° C. for two months.
(§7) Each well of the reverse transcription plate required 10 uL of 2× reverse transcriptase Buffer, 1 uL of 20× reverse transcription enzyme and 2 uL of nuclease-free water. The reverse transcription master mix was prepared by mixing 2× reverse transcription buffer, 20× reverse transcription enzyme mix, and nuclease-free water. 13 uL of the reverse transcription master mix was dispensed into each well of the reverse transcription plate (semi-skirted). A separate reverse transcription plate was prepared for each cell plate. The plate was loaded onto a Biomek NX or Biomek FX Dual-96 and the Biomek method was run. The program is programmed to automatically added 7 uL of lysate from the cell lysis procedure described above into each well of the reverse transcription plate. The plate is sealed and spun on a centrifuge (1000 rpm for 30 seconds) to settle the contents to the bottom of the reverse transcription plate. The plate is placed in a thermocycler at 37° C. for 60 min, 95° C. for 5 min, and 4° C. until the plate is removed from the thermocycler. Upon removal, if not used immediately, the plate was frozen at −20° C.
(§8) A series of probes and primers were used to detect the various mRNA transcripts of the genes of β-Actin (human cell line only), and of GATA3 and GAPDH in mouse and human cell lines. All Taqman probes and primers for the experiments here-in described were supplied as pre-validated sets by Applied Biosystems, Inc. (see Table 2).
(§9) The assays were performed on an ABI 7900 instrument, according to the manufacturer's instructions. A TaqMan Gene Expression Master Mix (provided in the Cells-to-CT™, Applied Biosystems, Cat #4399002) was used. The PCR reactions were carried out at 50° C. for 2 min, 95° C. for 20 min followed by 40 cycles at 95° C. for 15 secs and 60° C. for 1 min. […]

[2] = tested on: GATA3 mRNA; assay: GATA3 mRNA knock-down (Taqman qRT-PCR) after RNAiMax transfection of human MCF7 cells; screen and IC50 dose response; type: cell-based; conditions: 10 nM siNA, MCF7 cells, 24 hrs, average of 3 experiments
Description: MCF7 (human; ATCC cat# HTB-22): Cells were cultured at 37° C. in the presence of 5% CO2 and grown in Eagle's Minimum Essential medium with supplemented with fetal bovine serum at a final concentration of 10% and 100 μg/mL of streptomycin and 100 U/mL penicillin.
as §1, §2, §3, §4, §5, §6, §7, §8, §9

| Substance | % KD Mouse [1] [%] | % KD Human [2] [%] |
| --- | --- | --- |
| 30273-DC: GATA3 siNA duplex, mouse site 1489: sense B cuuAucAAGcccAAGcGAA TTB (SEQ 99), antisense UUCGcuuGGGcuuGAuAAGUU (SEQ 100) (sense CUUAUCAAGCCCAAGCGAATT; antisense UUCGCUUGGGCUUGAUAAGUU; sense: DNA at AGT, 2'-fluoro at CU, [invAb] at 5' end, 3' end, backbone not given here; antisense: chemistry not given here) | 33 ± 1 | −3 ± 16 |
| 30274-DC: GATA3 siNA duplex, mouse site 704: sense B cucAGuAuccGcuGAcGGA TTB (SEQ 101), antisense UCCGucAGcGGAuAcuGAGUU (SEQ 102) (sense CUCAGUAUCCGCUGACGGATT; antisense UCCGUCAGCGGAUACUGAGUU; sense: DNA at AGT, 2'-fluoro at CU, [invAb] at 5' end, 3' end, backbone not given here; antisense: sugars from the 5' end rrrmffmmfmmmfmffmmmmm, backbone not given here) | −2 ± 4 | 0 ± 13 |
| 30275-DC: GATA3 siNA duplex, mouse site 794: sense B GGGcuAcGGuGcAGAGGuA TTB (SEQ 103), antisense UACcucuGcAccGuAGcccUU (SEQ 104) (sense GGGCUACGGUGCAGAGGUATT; antisense UACCUCUGCACCGUAGCCCUU; sense: DNA at AGT, 2'-fluoro at CU, [invAb] at 5' end, 3' end, backbone not given here; antisense: sugars from the 5' end rrrffffmfmffmfmmfffmm, backbone not given here) | 49 ± 7 | 42 ± 8 |
| 30276-DC: GATA3 siNA duplex, mouse site 678: sense B GGGccucGGccAuucGuAc TTB (SEQ 105), antisense GUAcGAAuGGccGAGGcccUU (SEQ 106) (sense GGGCCUCGGCCAUUCGUACTT; antisense GUACGAAUGGCCGAGGCCCUU; sense: DNA at AGT, 2'-fluoro at CU, [invAb] at 5' end, 3' end, backbone not given here; antisense: sugars from the 5' end rrrfmmmfmmffmmmmfffmm, backbone not given here) | −2 ± 6 | −12 ± 16 |
| 30277-DC: GATA3 siNA duplex, mouse site 1535: sense B cAuccuGcGcGAAcuGucA TTB (SEQ 107), antisense UGAcAGuucGcGcAGGAuGUU (SEQ 108) (sense CAUCCUGCGCGAACUGUCATT; antisense UGACAGUUCGCGCAGGAUGUU; sense: DNA at AGT, 2'-fluoro at CU, [invAb] at 5' end, 3' end, backbone not given here; antisense: sugars from the 5' end rrrfmmfffmfmfmmmmfmmm, backbone not given here) | 26 ± 4 | −4 ± 7 |
| 30278-DC: GATA3 siNA duplex, mouse site 720: sense B GGAAGAGGuGGAcGuAcuu TTB (SEQ 109), antisense AAGuAcGuCCAccucuuccUU (SEQ 110) (sense GGAAGAGGUGGACGUACUUTT; antisense AAGUACGUCCACCUCUUCCUU; sense: DNA at AGT, 2'-fluoro at CU, [invAb] at 5' end, 3' end, backbone not given here; antisense: chemistry not given here) | 60 ± 2 | −18 ± 5 |
| 30279-DC: GATA3 siNA duplex, mouse site 1448: sense B ccuGcGGAcucuAccAuAA TTB (SEQ 111), antisense UUAuGGuAGAGuccGcAGGUU (SEQ 112) (sense CCUGCGGACUCUACCAUAATT; antisense UUAUGGUAGAGUCCGCAGGUU; sense: DNA at AGT, 2'-fluoro at CU, [invAb] at 5' end, 3' end, backbone not given here; antisense: sugars from the 5' end rrrfmmfmmmmfffmfmmmmm, backbone not given here) | 68 ± 4 | −27 ± 12 |
| 30280-DC: GATA3 siNA duplex, mouse site 1106: sense B ccGGGucGGccAGGcAAGA TTB (SEQ 113), antisense UCUuGccuGGccGAcccGGUU (SEQ 114) (sense CCGGGUCGGCCAGGCAAGATT; antisense UCUUGCCUGGCCGACCCGGUU; sense: DNA at AGT, 2'-fluoro at CU, [invAb] at 5' end, 3' end, backbone not given here; antisense: sugars from the 5' end rrrfmfffmmffmmfffmmmm, backbone not given here) | 1 ± 2 | −16 ± 12 |
| 30281-DC: GATA3 siNA duplex, human/mouse site 904: sense B ccuucuccAAGAcGuccAu TTB (SEQ 115), antisense AUGGAcGucuuGGAGAAGGUU (SEQ 116) (sense CCUUCUCCAAGACGUCCAUTT; antisense AUGGACGUCUUGGAGAAGGUU; sense: DNA at AGT, 2'-fluoro at CU, [invAb] at 5' end, 3' end, backbone not given here; antisense: sugars from the 5' end rrrmmfmffffmmmmmmmmmm, backbone not given here) | 13 ± 3 | −14 ± 7 |
| 30282-DC: GATA3 siNA duplex, human/mouse site 2587: sense B cAccAAAAuAAGAAAAGAu TTB (SEQ 117), antisense AUCuuuucuuAuuuuGGuGUU (SEQ 118) (sense CACCAAAAUAAGAAAAGAUTT; antisense AUCUUUUCUUAUUUUGGUGUU; sense: DNA at AGT, 2'-fluoro at CU, [invAb] at 5' end, 3' end, backbone not given here; antisense: sugars from the 5' end rrrfffffffmffffmmfmmm, backbone not given here) | 84 ± 1 | 46 ± 8 |
| 30283-DC: GATA3 siNA duplex, human/mouse site 3067: sense B GucccuGuAAuuGuuGuuu TTB (SEQ 119), antisense AAAcAAcAAuuAcAGGGAcUU (SEQ 120) (sense GUCCCUGUAAUUGUUGUUUTT; antisense AAACAACAAUUACAGGGACUU; sense: DNA at AGT, 2'-fluoro at CU, [invAb] at 5' end, 3' end, backbone not given here; antisense: sugars from the 5' end rrrfmmfmmffmfmmmmmfmm, backbone not given here) | 47 ± 1 | 32 ± 5 |
| 30284-DC: GATA3 siNA duplex, human/mouse site 2155: sense B uGcuGAAcAuuGcAuAuAA TTB (SEQ 121), antisense UUAuAuGcAAuGuucAGcAUU (SEQ 122) (sense UGCUGAACAUUGCAUAUAATT; antisense UUAUAUGCAAUGUUCAGCAUU; sense: DNA at AGT, 2'-fluoro at CU, [invAb] at 5' end, 3' end, backbone not given here; antisense: sugars from the 5' end rrrfmfmfmmfmfffmmfrmm, backbone not given here) | 65 ± 0 | 46 ± 5 |
